From ChEMBL document CHEMBL2073840, “Inhibitory effects of a cyclosporin derivative, SDZ PSC 833, on transport of doxorubicin and vinblastine via human P-glycoprotein” (Jpn J Cancer Res, 1998)

Biological target: ATP-dependent translocase ABCB1 (Homo sapiens, UniProt P08183)
Assay: TP_TRANSPORTER: transepithelial transport (basal to apical) in MDR1-expressing LLC-PK1 cells
Format: functional, cell-based
Settings: pig

Sequence of ATP-dependent translocase ABCB1 (P08183 whole entry): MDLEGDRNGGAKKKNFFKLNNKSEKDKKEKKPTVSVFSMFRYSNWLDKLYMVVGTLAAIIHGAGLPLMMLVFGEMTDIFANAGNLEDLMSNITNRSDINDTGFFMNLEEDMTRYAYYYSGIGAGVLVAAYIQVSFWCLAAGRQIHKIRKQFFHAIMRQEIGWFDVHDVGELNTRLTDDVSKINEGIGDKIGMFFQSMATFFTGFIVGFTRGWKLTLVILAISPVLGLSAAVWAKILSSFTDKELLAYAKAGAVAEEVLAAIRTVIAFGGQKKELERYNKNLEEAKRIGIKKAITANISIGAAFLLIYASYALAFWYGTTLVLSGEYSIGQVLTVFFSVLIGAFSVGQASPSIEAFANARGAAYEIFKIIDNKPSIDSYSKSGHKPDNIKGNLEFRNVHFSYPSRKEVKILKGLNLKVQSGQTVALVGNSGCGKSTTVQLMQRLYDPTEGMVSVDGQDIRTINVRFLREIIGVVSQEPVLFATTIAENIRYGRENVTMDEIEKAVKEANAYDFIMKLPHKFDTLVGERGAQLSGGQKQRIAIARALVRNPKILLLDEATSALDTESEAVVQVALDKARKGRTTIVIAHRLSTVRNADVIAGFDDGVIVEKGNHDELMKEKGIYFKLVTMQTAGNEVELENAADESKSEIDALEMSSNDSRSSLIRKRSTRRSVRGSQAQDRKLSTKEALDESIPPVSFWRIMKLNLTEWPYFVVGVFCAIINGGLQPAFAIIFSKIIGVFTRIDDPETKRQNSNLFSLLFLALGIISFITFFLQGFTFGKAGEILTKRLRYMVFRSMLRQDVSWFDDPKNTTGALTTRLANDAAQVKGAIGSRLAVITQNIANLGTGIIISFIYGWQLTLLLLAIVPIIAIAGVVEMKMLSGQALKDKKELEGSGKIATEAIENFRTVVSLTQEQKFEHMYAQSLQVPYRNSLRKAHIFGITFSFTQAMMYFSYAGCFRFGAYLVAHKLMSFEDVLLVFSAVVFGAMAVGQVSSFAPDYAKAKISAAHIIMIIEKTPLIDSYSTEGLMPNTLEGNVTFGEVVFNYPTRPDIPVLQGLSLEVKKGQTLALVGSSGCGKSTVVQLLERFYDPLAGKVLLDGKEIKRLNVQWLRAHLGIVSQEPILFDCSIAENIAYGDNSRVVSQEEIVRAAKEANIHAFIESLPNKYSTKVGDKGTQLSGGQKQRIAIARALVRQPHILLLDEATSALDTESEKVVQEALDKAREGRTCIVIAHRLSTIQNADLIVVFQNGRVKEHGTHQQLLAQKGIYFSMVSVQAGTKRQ

Activity | Structure (SMILES)
substrate [+] | COc1cccc2c1C(=O)c1c(O)c3c(c(O)c1C2=O)C[C@@](O)(C(=O)CO)C[C@@H]3O[C@H]1C[C@H](N)[C@H](O)[C@H](C)O1 [DOXORUBICIN]
is not a substrate [-] | C/C=C/C[C@@H](C)C(=O)[C@H]1C(=O)N[C@@H](C(C)C)C(=O)N(C)CC(=O)N(C)[C@@H](CC(C)C)C(=O)N[C@@H](C(C)C)C(=O)N(C)[C@@H](CC(C)C)C(=O)N[C@@H](C)C(=O)N[C@H](C)C(=O)N(C)[C@@H](CC(C)C)C(=O)N(C)[C@@H](CC(C)C)C(=O)N(C)[C@@H](C(C)C)C(=O)N1C [VALSPODAR]
